From US20250154266A1, “ACTIVIN SIGNALING ACTIVITY” (The Johns Hopkins University, priority 2022, published 2025)

B1: Activin A: dimeric member of the TGF-β Superfamily; two Activin βA subunits (protein, UniProt P08476 311-426, looked up)
Inhibin beta A chain: GLECDGKVNICCKKQFFVSFKDIGWNDWIIAPSGYHANYCEGECPSHIAGTSGSSLSFHSTVINHYRMRGHSPFANLKSCCVPTKLRPMSMLYYDDGQNIIKKDIQNMIVEECGCS
modifications: homodimer

Assays:
[1] = system: Activin receptor-like kinase; settings: Table I, cited from earlier work; for Function: reported function in words; for Target: target profile in words
[2] = system: ALK1, ALK2, BMPR1A, ALK4, TGFBR1, BMPR1B, and ALK7; settings: in words; cited from earlier work
[3] = system: SMAD phosphorylation in CD4+ T cells; assay: Western blot analysis of SMAD phosphorylation in CD4+ T cells; type: cell-based
Description: Since Activins have been reported to promote SMAD signaling in non-T cells (14), it was tested whether Activins signaling in T cells could have a similar effect. SMAD activity was assessed by western blot analysis of SMAD phosphorylation.

naive CD4+ T cells = assay: Foxp3 induction / Treg generation from naive CD4+ T cells; type: cell-based; settings: for Foxp3 induction (Foxp3+ cells): single agent, TGF-β at suboptimal concentration, Activin A in the absence of TGF-β
From the text: Since […] mediated events are important during the up-regulation of Foxp3 and the generation of Tregs from naive CD4+ T cell precursors, it was investigated whether Activin A can drive the process. Without TGF-β, as expected, Foxp3 induction was minimal.

[4] = system: ALK1, ALK2, ALK3 and ALK6; settings: in words; cited from earlier work
[5] = single agent, Activin A 5 or 10 ng/ml, TGF-β 0.5 or 2 ng/ml

Molecule	Function [1]	Target [1]	also measured
Cc1cccc(-c2[nH]c(C(C)(C)C)nc2-c2ccc3nccnc3c2)n1 [SB-525334]	SB-525334 has been demonstrated to block phosphorylation and Smad2/3 nuclear translocation, and inhibits renal fibrosis by reducing procollagen and PAI-1 expression.	ALK4, 5, 7	
Cc1cccc(-c2nn3c(c2-c2ccnc4ccc(C(N)=O)cc24)CCC3)n1 (atropisomer, axis not shown) [LY-2157299]	LY-2157299 is now under phase II clinical studies of its anti- carcinoma activities against glioblastoma and hepatocellular carcinoma, and has also been reported that it inhibits the tumor growth in human lung anaplastic carcinoma cells and breast carcinoma cells.	ALK4, 5, 7	
c1ccc(-c2nc3c(c(-n4ccc5cnccc54)n2)CCC3)nc1 [AZ12601011]			targets [2]: targets ALK4 and ALK7 as well as TGFBR1
c1ccc(-c2cc(-c3c[nH]nc3-c3ccccn3)ccn2)cc1 [GW-6604]	GW-6604 can prevent matrix deposition and promote hepatocyte regeneration as anti-cancer drug development.	ALK4, 5, 7	
TGF-β: cytokine, inducer of Foxp3 expression and SMAD signaling			SMAD phosphorylation (phospho-SMAD) [3, 5]: induced SMAD phosphorylation; Foxp3 induction (Foxp3+ cells) (naive CD4+ T cells): modest up-regulation of Foxp3
Cc1cccc(-c2nn(C(=S)Nc3ccccc3)cc2-c2ccnc3ccccc23)n1 [Clone A-83-01, 3-(6-Methylpyridin-2-yl)-N-phenyl-4-(quinolin-4-yl)-1H-pyrazole-1-carbothioamide]	A-83-01 can inhibit the activities of ALK4, 5 and 7. For other ALK receptors such as ALK1, 2, 3 and 6, A-83-01 showed weak inhibition. A-83- 01 was proved to reduce EMT.	Selective inhibitor for ALK4, 5 and 7, and weak effect on ALK1, 2, 3 and 6	inhibition of ALK1, ALK2, ALK3 and ALK6 [4]: weak inhibitor
Fc1ccc(Cl)cc1-c1nc(Nc2ccncc2)c2nccnc2n1 [SD-208]	SD-208 inhibits growth and invasiveness and enhances immunogenicity of murine and human glioma cells.	ALK4, 5, 7	
Cc1cccc(-c2[nH]c(C(C)(C)C)nc2-c2ccc3c(c2)OCO3)n1 [SB-505124]		ALK4, 5, 7	
B1			SMAD phosphorylation (phospho-SMAD) ([3]; combined Activin A and TGF-β treatment): even further activation of the SMAD signaling pathway; SMAD phosphorylation (phospho-SMAD) [3, 5]: elevation of phospho-SMAD; Foxp3+ T cell induction (naive CD4+ T cells; combined treatment with Activin and TGF-β): synergistic promotion of Foxp3+ T cell induction; Foxp3 induction (Foxp3+ cells) (naive CD4+ T cells): comparable population of Foxp3+ cells
